Measurements reported in US20100298141A1, “SUBSTITUTED PYRIDINE N-OXIDE HERBICIDES” (E. I. DU PONT DE NEMOURS AND COMPANY, priority 2007, published 2010).

What was measured:
[1] = test system: Italian ryegrass; experiment: Test F preemergence test; assay type: in vivo, Lolium multiflorum; conditions: scale 0 to 100
Procedure, shortened: (§1)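 Greenhouse screen: test chemical in surfactant-containing non-phytotoxic solvent applied preemergence to sown seeds or postemergence to sugarcane plants; after 14 to 21 days each species scored visually versus controls.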

[2] = test system: Surinam grass; experiment: Test F preemergence test; assay type: in vivo, Brachiaria decumbens; conditions: scale 0 to 100
Procedure, shortened: as §1

[3] = test system: Russian thistle; experiment: Test C pre-/postemergence test; assay type: in vivo, Salsola kali
Procedure, shortened: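 Test chemicals were formulated with surfactant in a non-phytotoxic solvent and sprayed both on freshly planted seeds (preemergence) and on 1- to 4-leaf plants of 2–18 cm (postemergence). Flooded-paddy pots received compound directly into 3 cm of standing water, maintained for the test.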

[4] = test system: common purslane; experiment: Test F preemergence test; assay type: in vivo, Portulaca oleracea; conditions: scale 0 to 100
Procedure, shortened: as §1

[5] = test system: naked crabgrass; experiment: Test F preemergence test; assay type: in vivo, Digitaria nuda; conditions: scale 0 to 100
Procedure, shortened: as §1

[6] = test system: purple nutsedge; experiment: Test F preemergence test; assay type: in vivo, Cyperus rotundus; conditions: scale 0 to 100; for Plant response rating, Purple Nutsedge: Preemergence
Procedure, shortened: as §1

[7] = test system: goosegrass; experiment: Test F preemergence test; assay type: in vivo, Eleusine indica; conditions: scale 0 to 100
Procedure, shortened: as §1

[8] = test system: kochia; experiment: Test F preemergence test; assay type: in vivo, Kochia scoparia; conditions: scale 0 to 100
Procedure, shortened: as §1

[9] = test system: johnsongrass; experiment: Test F preemergence test; assay type: in vivo, Sorghum halepense; conditions: scale 0 to 100
Procedure, shortened: as §1

[10] = test system: quackgrass; experiment: Test F preemergence test; assay type: in vivo, Elytrigia repens; conditions: scale 0 to 100
Procedure, shortened: as §1

[11] = test system: common ragweed; experiment: Test F preemergence test; assay type: in vivo, Ambrosia elation; conditions: scale 0 to 100
Procedure, shortened: as §1

[12] = test system: common groundsel; experiment: Test F preemergence test; assay type: in vivo, Senecio vulgaris; conditions: scale 0 to 100
Procedure, shortened: as §1

[13] = test system: prickly sida; experiment: Test F preemergence test; assay type: in vivo, Sida spinosa; conditions: scale 0 to 100
Procedure, shortened: as §1

[14] = test system: pitted morningglory; experiment: Test F preemergence test; assay type: in vivo, Ipomoea lacunosa; conditions: scale 0 to 100
Procedure, shortened: as §1

[15] = test system: bermudagrass; experiment: Test F preemergence test; assay type: in vivo, Cynodon dactylon; conditions: scale 0 to 100
Procedure, shortened: as §1

[16] = test system: large crabgrass; experiment: Test F preemergence test; assay type: in vivo, Digitaria sanguinalis; conditions: scale 0 to 100
Procedure, shortened: as §1

[17] = test system: guineagrass; experiment: Test F preemergence test; assay type: in vivo, Panicum maximum; conditions: scale 0 to 100
Procedure, shortened: as §1

[18] = test system: southern sandbur; experiment: Test F preemergence test; assay type: in vivo, Cenchrus echinatus; conditions: scale 0 to 100
Procedure, shortened: as §1

SMILES: CC(Oc1c(C[S+]([O-])c2ccc(Cl)c[n+]2[O-])c(C(F)(F)F)nn1C)C(F)(F)F (centres unmarked) [Compound 87]
- Plant response rating, Ryegrass, Italian ([1]; 16 g ai/ha, preemergence): 100
- Ryegrass, Italian plant response rating ([1]; 125 g ai/ha, preemergence): 100
- Plant response rating, Ryegrass, Italian ([1]; Preemergence, 62 g ai/ha): 100
- Plant response rating, Ryegrass, Italian ([1]; Preemergence, 31 g ai/ha): 100
- Plant response rating, Surinam Grass ([2]; 16 g ai/ha, preemergence): 65
- Surinam Grass plant response rating ([2]; 125 g ai/ha, preemergence): 100
- Plant response rating, Surinam Grass ([2]; Preemergence, 62 g ai/ha): 100
- Plant response rating, Surinam Grass ([2]; Preemergence, 31 g ai/ha): 100
- Russian Thistle plant response rating ([3]; 62 g ai/ha, Preemergence, scale 0 to 100): 100
- Russian Thistle plant response rating ([3]; 125 g ai/ha, preemergence, scale 0 (no effect) to 100 (complete control)): 100
- Plant response rating, Russian Thistle ([3]; Preemergence, 31 g ai/ha, scale 0 to 100 (0 no effect, 100 complete control)): 100
- Russian Thistle plant response rating ([3]; preemergence, 250 g ai/ha, scale 0 (no effect) to 100 (complete control)): 100
- Plant response rating, Purslane ([4]; 16 g ai/ha, preemergence): 0
- Purslane plant response rating ([4]; 125 g ai/ha, preemergence): 100
- Plant response rating, Purslane ([4]; Preemergence, 62 g ai/ha): 70
- Plant response rating, Purslane ([4]; Preemergence, 31 g ai/ha): 20
- Plant response rating, Crabgrass, Naked ([5]; 16 g ai/ha, preemergence): 95
- Crabgrass, Naked plant response rating ([5]; 125 g ai/ha, preemergence): 100
- Plant response rating, Crabgrass, Naked ([5]; Preemergence, 62 g ai/ha): 100
- Plant response rating, Crabgrass, Naked ([5]; Preemergence, 31 g ai/ha): 100
- Purple Nutsedge plant response rating ([6]; 125 g ai/ha, preemergence): 80
- Plant response rating, Purple Nutsedge ([6]; 62 g ai/ha): 70
- Plant response rating, Purple Nutsedge ([6]; 31 g ai/ha): 60
- Plant response rating, Goosegrass ([7]; 16 g ai/ha, preemergence): 70
- Goosegrass plant response rating ([7]; 125 g ai/ha, preemergence): 100
- Plant response rating, Goosegrass ([7]; Preemergence, 62 g ai/ha): 95
- Plant response rating, Goosegrass ([7]; Preemergence, 31 g ai/ha): 80
- Plant response rating, Kochia ([8]; 16 g ai/ha, preemergence): 0
- Kochia plant response rating ([8]; 125 g ai/ha, preemergence): 50
- Plant response rating, Kochia ([8]; Preemergence, 62 g ai/ha): 50
- Plant response rating, Kochia ([8]; Preemergence, 31 g ai/ha): 0
- Plant response rating, Johnsongrass ([9]; 16 g ai/ha, preemergence): 40
- Johnsongrass plant response rating ([9]; 125 g ai/ha, preemergence): 100
- Plant response rating, Johnsongrass ([9]; Preemergence, 62 g ai/ha): 95
- Plant response rating, Johnsongrass ([9]; Preemergence, 31 g ai/ha): 75
- Plant response rating, Quackgrass ([10]; 16 g ai/ha, preemergence): 60
- Quackgrass plant response rating ([10]; 125 g ai/ha, preemergence): 90
- Plant response rating, Quackgrass ([10]; Preemergence, 62 g ai/ha): 80
- Plant response rating, Quackgrass ([10]; Preemergence, 31 g ai/ha): 60
- Plant response rating, Ragweed ([11]; 16 g ai/ha, preemergence): 0
- Ragweed plant response rating ([11]; 125 g ai/ha, preemergence): 90
- Plant response rating, Ragweed ([11]; Preemergence, 62 g ai/ha): 70
- Plant response rating, Ragweed ([11]; Preemergence, 31 g ai/ha): 0
- Plant response rating, Groundsel ([12]; 16 g ai/ha, preemergence): 0
- Groundsel plant response rating ([12]; 125 g ai/ha, preemergence): 65
- Plant response rating, Groundsel ([12]; Preemergence, 62 g ai/ha): 0
- Plant response rating, Groundsel ([12]; Preemergence, 31 g ai/ha): 0
- Plant response rating, Prickly Sida ([13]; 16 g ai/ha, preemergence): 0
- Prickly Sida plant response rating ([13]; 125 g ai/ha, preemergence): 100
- Plant response rating, Prickly Sida ([13]; Preemergence, 62 g ai/ha): 75
- Plant response rating, Prickly Sida ([13]; Preemergence, 31 g ai/ha): 50
- Plant response rating, Morningglory ([14]; 16 g ai/ha, preemergence): 0
- Morningglory plant response rating ([14]; 125 g ai/ha, preemergence): 90
- Plant response rating, Morningglory ([14]; Preemergence, 62 g ai/ha): 35
- Plant response rating, Morningglory ([14]; Preemergence, 31 g ai/ha): 0
- Plant response rating, Bermudagrass ([15]; 16 g ai/ha, preemergence): 25
- Bermudagrass plant response rating ([15]; 125 g ai/ha, preemergence): 95
- Plant response rating, Bermudagrass ([15]; Preemergence, 62 g ai/ha): 70
- Plant response rating, Bermudagrass ([15]; Preemergence, 31 g ai/ha): 60
- Plant response rating, Crabgrass, Large ([16]; 16 g ai/ha, preemergence): 30
- Crabgrass, Large plant response rating ([16]; 125 g ai/ha, preemergence): 100
- Plant response rating, Crabgrass, Large ([16]; Preemergence, 62 g ai/ha): 95
- Plant response rating, Crabgrass, Large ([16]; Preemergence, 31 g ai/ha): 65
- Plant response rating, Guineagrass ([17]; 16 g ai/ha, preemergence): 90
- Guineagrass plant response rating ([17]; 125 g ai/ha, preemergence): 100
- Plant response rating, Guineagrass ([17]; Preemergence, 62 g ai/ha): 100
- Plant response rating, Guineagrass ([17]; Preemergence, 31 g ai/ha): 100
- Plant response rating, Sandbur ([18]; 16 g ai/ha, preemergence): 50
- Sandbur plant response rating ([18]; 125 g ai/ha, preemergence): 100
- Plant response rating, Sandbur ([18]; Preemergence, 62 g ai/ha): 100
- Plant response rating, Sandbur ([18]; Preemergence, 31 g ai/ha): 100
